Cc1cnc(NC(=O)C2=C(O)c3ccccc3S(=O)(=O)N2C)s1
Conditions | solubility (mole fraction)
in PEG-400, 298.15 K | 0.00932
in PEG-400, 303.15 K | 0.0096
in PEG-400, 308.15 K | 0.0101
in PEG-400, 313.15 K | 0.0104
in PEG-400, 318.15 K | 0.0106

in water
Conditions | solubility (mole fraction)
298.15 K | 4.24e-07
303.15 K | 6.28e-07
308.15 K | 9.48e-07
313.15 K | 1.34e-06
318.15 K | 1.93e-06
